Reference: patent US7763267B2, “Versatile high load concentrate compositions for control of ecto- parasites” (Wyeth LLC, priority 2005, dated 2010)

Test system: biting lice
Assay: Effect of metaflumizone body spray on biting lice of sheep
Assay type: in vivo
Details: 10 mg/kg as body spray (1500 ml/animal), vs untreated control lice/animal
Experimental: 12.59 grams of metaflumizone is added to dimethyl isosorbide using mild heating (approximately 40° C.). To this solution is added 109.92 grams Cremophor® EL (polyethoxylated castor oil, sold by Basf Aktiengesellschaft), with stirring, followed by q.s. 200 ml 1-methoxy-2-propyl acetate The resultant solution is stored until ready for use, whereupon it can be diluted with water for use as a spray (17 ml of concentrate diluted to 3500 ml with water), or with water for use as a feed/water additive (in approximately the same ratio).
This formulation was diluted with water to a metaflumizone concentration of 10 mg/kg bodyweight, and applied to sheep at 1500 ml/animal to test the effect of metaflumizone on biting lice

Measured: % Efficacy

N#Cc1ccc(CC(=NNC(=O)Nc2ccc(OC(F)(F)F)cc2)c2cccc(C(F)(F)F)c2)cc1 [metaflumizone, (E Z)-2-[2-(4-cyanophenyl)-1-[3-(trifluoromethyl)phenyl]ethylidene]-N-[4-(trifluoromethoxy)phenyl]hydrazinecarboxamide]
100%: 7 days after treatment | 14 days after treatment | 21 days after treatment | 28 days after treatment
